In US12144788B2, “Visual cycle modulators” (CASE WESTERN RESERVE UNIVERSITY, priority 2017, dated 2024):

Legend:
C57BL/6J mice = test: in vivo dark-adapted ERG recordings after bleach; parameters: species or system mouse; settings: gavage 1 day before bleach, doses indicated effective by retinoid analysis
Procedure: FIG. 5 illustrates ERG responses of mice treated with visual cycle modulators. Oral gavage was used to administer vehicle or MB compounds to mice 24 h prior to 10 min light exposure followed by 6 h of dark adaptation. Dark-adapted ERGs were obtained to strobe flash stimuli.
C57BL/6J mice aged 1.5-4 months were anesthetized with ketamine (80 mg/kg) and xylazine (16 mg/kg) after overnight dark adaptation. Mydriatic eye drops were used to dilate the pupil (1% tropicamide; 2.5% phenylephrine). ERGs were obtained using an active electrode that contacted the corneal surface; needle electrodes placed in the cheek and tail provided reference and ground leads, respectively. Strobe stimuli were presented to the dark-adapted eye in an LKC (Gaithersburg, MD) ganzfeld. Responses were amplified, averaged and stored using an LKC UTAS E-3000 signal averaging system.
Baseline dark-adapted ERGs were recorded from each mouse. After a minimum 1 day interval, MB compounds or vehicle were administered by gavage at 9 a.m. The next morning, mydriatic eye drops were used to dilate the pupils and mice were then exposed to a 10-minute 10,000 lux bleach. Mice were dark-adapted for 6 hours, after which ERGs were recorded.
We next examined the impact of these compounds on retinal function, measured using the electroretinogram (ERG). FIG. 5 presents a family of dark-adapted ERGs measured 6 hours after mice underwent a 95% bleach presented 1 day following gavage administration of vehicle or MB compound molecules at doses indicated to be effective by retinoid analysis. […] In comparison, mice administered with MB compound molecules had had reduced amplitude ERGs indicative of incomplete bleaching recovery. […] In response to higher luminance stimuli, reproducible responses were observed. That these reflect dark-adapted cone-mediated responses is supported by their similarity to responses obtained from transducin KO mice which lack rod-mediated activity, while retaining normal cone-mediated responses, and have a very similar ERG phenotype.

Abca4−/−Rdh8−/− mice = test: protection against light-induced retinal degeneration (OCT, ONL thickness); type: in vivo, mouse
Procedure: FIGS. 7(A-B) illustrate protective effects of MB compounds against light-induced retinal degeneration in Abca4^−/−Rdh8^−/− mice. Drugs were administrated at the indicated doses to 4-6 week-old Abca4^−/−Rdh8^−/− mice (weight ˜20 g) by oral gavage. After a 24 h dark adaptation, mice were exposed to 10,000 lux light for 30 min and then returned to a dark environment for 3 days. (A) Representative OCT images of mice treated with MB compounds. A dramatic decrease in the ONL indicates advanced retinal degeneration. The black scale beside the DMSO image represents 50 μm. (B) Retinal protective effects exerted by MB compounds as quantified by average ONL thickness. Only non-scattering ONL layers were measured. For images in which the ONL layer boundary was obscured due to light scattering, the ONL length was recorded as 0 μm. Error bars represent standard deviations; n=3-5 for each group.
(§1) Abca4^−/−Rdh8^−/− mice on a C57BL/6J background were generated as previously described. Male and female WT mice with C57BL/6J backgrounds were obtained from The Jackson Laboratory. Abca4^−/−Rdh8^−/− mice used in this study were homozygous for the Leu450 allele of Rpe65 as determined by a genotyping protocol published previously and free of Crb1/rd8 and rd/rd mutations Animals were housed either in the animal facility at the Case Western Reserve University School of Medicine, where they received a standard chow diet (LabDiet 5053) and were maintained under a 12-h light (˜300 lux) and 12-h dark cycle or at the Cole Eye Institute animal facility where they were. Mice were dark adapted overnight prior to all experiments. A cohort of Rdh8^−/−Abca4^−/− or C57BL/6J mice was used when they reached the age of 1 to 2 months, and both sexes were used evenly. All tested primary amines were suspended in 100 μl soybean oil with less than 10% (v/v) DMSO and were administered by oral gavage with a 22-gauge feeding needle. Experimental manipulations in the dark were done under dim red light transmitted through a Kodak No. 1 Safelight Filter (transmittance >560 nm).
After dark adaptation for 24 h, Abca4^−/−Rdh8^−/− mice with pupils dilated by 1% tropicamide were exposed to fluorescent light (10,000 lux; 150 W spiral lamp; Commercial Electric) for 30 min in a white paper bucket (Papersmith) and then kept in the dark for an additional 3 days. Development of retinal degeneration was then determined by ultra-high-resolution spectral domain OCT (SD-OCT; Bioptigen) and ERG as previously described.
To examine the ability of […] cause retinal damage in the absence of treatment with protective agents. Three days later retinas were imaged in vivo by optical coherence tomography, with preservation of outer nuclear layer thickness and light scattering properties serving as markers for retinal health. MB-001, which is capable of preventing light-induced retinal degeneration through both direct RPE65 inhibition as well as retinal sequestration served as a positive control for these experiments.

[1] = tested on: visual chromophore regeneration in C57BL6J mouse eyes; test: visual chromophore recovery assay (ocular 11-cis-retinal by HPLC after bleach); type: in vivo; settings: for visual chromophore regeneration: 10 μg/mouse oral gavage 24 h before light exposure (95% bleach), 6 h dark adaptation; for effect on 11-cis-retinal recovery / visual cycle function: 500 μg (0.5 mg/mouse) oral gavage 24 h before light exposure
Procedure: FIG. 4 illustrates inhibition of visual chromophore regeneration in C57BL6J mouse eyes by MB compounds. The MB drugs were administrated to mice by oral gavage 24 h prior to light exposure for 10 min. Then all mice recovered under darkness for 6 h.
as §1
After bright light exposure resulting in photoactivation of 95% of rhodopsin, mice were kept in the dark for 6 h. Then, the animals were euthanized and their eyes were collected and homogenized in 10 mM sodium phosphate buffer, pH 7.4, containing 50% methanol (v/v) and 40 mM hydroxylamine. The resulting mixture was extracted with 4 ml of hexanes.
Next, we tested the effects of the MB compound series on retinoid cycle function in the living mouse. […] After the light treatment, mice were allowed to dark adapt for 6 h before their ocular retinoid content was determined by HPLC. […] To examine the possibility that the lack of MB-008 efficacy at 24 h was due to insufficient concentrations resulting from a shorter elimination half-life or poorer bioavailability, we repeated the experiment with the mice subjected to light exposure 4 h after MB-008 administration. A 100 μg dose of MB-008 suppressed visual chromophore regeneration by ˜80%, supporting the idea that the retinal concentration of MB-008 could be sub-effective at the longer post-treatment light challenge.

RPE65 = RPE65 (Bos taurus, UniProt Q28175); test: in vitro retinoid isomerase activity assay with bovine RPE microsomes; settings: for times more potent compared to emixustat (racemic): RPE65 inhibition, bovine RPE microsomes; for inhibition against retinoid isomerization: up to concentrations of 50 μM
Procedure: Primary amines were pre-incubated with bovine RPE microsomes at room temperature for 5 min, then all-trans-retinol was added and the mixtures were incubated at 37° C. All incubation mixtures were quenched by the addition of methanol after 1 h of incubation. Inhibition of RPE65 enzymatic activity was measured as a decline in 11-cis-retinol production.
Synthesized primary amine (1 μl in DMF, with the final concentration ranging between 50 nM and 50 μM) was added to 10 mM Bis-Tris propane/HCl buffer, pH 7.4, containing 150 μg RPE microsomes, 1% BSA, 1 mM disodium pyrophosphate, and 20 μM aporetinaldehyde-binding protein 1 (CRALBP). The resulting mixture was pre-incubated at room temperature for 5 min. Then, all-trans-retinol (1 μl in DMF, at a final concentration of 20 μM) was added. The resulting mixture was incubated at 37° C. for 1 h. The reaction was quenched by adding 300 μl methanol, and products were extracted with 300 μl hexanes. Production of 11-cis-retinol was quantified by normal-phase HPLC with 10% (v/v) EtOAc in hexanes as the eluent at a flow rate of 1.4 ml/min. Retinoids were detected by monitoring their absorbance at 325 nm and quantified based on a standard curve representing the relationship between the amount of synthetic 11-cis-retinol standard and the area under the corresponding chromatographic peak.
To test these structural predictions, we examined the inhibitory activity of the compounds against RPE65 activity in an in vitro retinoid isomerase assay using bovine RPE microsomes as the enzyme source.

[2] = identification of atRAL Schiff base conjugates with MB compounds in mouse eyes; type: in vivo; settings: Abca4−/−Rdh8−/− mice, 50 mg/kg oral gavage, bright light exposure 10 min; mass spectrometry versus standards
Procedure: FIGS. 6(A-B) illustrate identification of retinal Schiff base conjugates in Abca4^−/− Rdh8^−/− mice treated with MB-005 and MB-006. Following drug administration, mice were exposed to intense light for 10 min. After a 30 min recovery under darkness, animals were sacrificed and retinoids were extracted from the eyes. (A, B) Shown in the top panels are selective ion chromatograms for MB-005-retinal conjugates (A, at m/z=572.6) and MB-006-retinal conjugates (B, at m/z=588.6). Panels on the bottom show the mass spectra of the peaks coinciding with the retention times of their authentic standards. The insets display the MS/MS fragmentation patterns of the two imines, which were identical to the corresponding standards.
MB-005 or MB-006 (50 mg/kg) were administrated by oral gavage to Abca4^−/−Rdh8^−/− mice 24 h prior to light exposure. After exposure to fluorescent light for 10 min, animals were euthanized and their eyes were collected and homogenized in acetonitrile. After centrifugation, the supernatant was concentrated to 400 μl under vacuum. […]
With the effects of these compounds on visual cycle function established we next sought to examine their ability to form retinal-Schiff base conjugates in vivo. […] Retinoids were extracted and analyzed by mass spectrometry. […]

[3] = 1 mg per mouse oral gavage 24 h before light

Sequence of RPE65 (Q28175 whole entry): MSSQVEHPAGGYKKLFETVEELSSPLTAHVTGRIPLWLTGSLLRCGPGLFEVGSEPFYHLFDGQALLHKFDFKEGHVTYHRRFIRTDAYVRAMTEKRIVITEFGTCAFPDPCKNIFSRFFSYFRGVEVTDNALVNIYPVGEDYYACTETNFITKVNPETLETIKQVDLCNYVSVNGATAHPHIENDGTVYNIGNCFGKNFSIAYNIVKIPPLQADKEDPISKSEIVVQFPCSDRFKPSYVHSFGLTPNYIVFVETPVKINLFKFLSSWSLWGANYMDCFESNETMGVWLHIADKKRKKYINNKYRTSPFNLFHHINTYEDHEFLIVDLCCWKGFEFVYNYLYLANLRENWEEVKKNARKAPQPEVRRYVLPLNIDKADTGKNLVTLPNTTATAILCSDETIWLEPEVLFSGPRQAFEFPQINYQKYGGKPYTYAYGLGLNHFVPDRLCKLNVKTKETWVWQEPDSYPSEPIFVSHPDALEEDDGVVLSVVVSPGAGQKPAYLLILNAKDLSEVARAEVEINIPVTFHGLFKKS

IC50 (RPE65) [nM]	times more potent compared to emixustat (racemic) (RPE65)	inhibition against retinoid isomerization (RPE65)	Structure (SMILES)	dark-adapted ERG 6 hours after 95% bleach (C57BL/6J mice)	visual chromophore regeneration [1]	effect on 11-cis-retinal recovery / visual cycle function ([1]; 6 h dark)	protection against light-induced retinal degeneration (Abca4−/−Rdh8−/− mice; [3])	other results
			CC1=C(COc2cccc([C@H](O)CCN)c2)C(C)(C)CCC1 [MB-001, reference compound]	responses to low luminance stimuli that were not different from background noise levels				protection against light-induced retinal degeneration (Abca4−/−Rdh8−/− mice; 50 μg oral gavage 24 h before light, positive control): fully protective
106 ± 16	approximately 2.2 times		CCCC(CCC)COc1cccc([C@H](O)CCN)c1 [MB-004]	responses to low luminance stimuli that were not different from background noise levels	dramatically suppressed visual chromophore regeneration			protective effect relative to MB-001 (Abca4−/−Rdh8−/− mice; 25 μg oral gavage 24 h before 10,000 lux light, OCT 3 days later): approximately 80%
189 ± 31	~1.2 times		CCCC(CCO)COc1cccc(C(O)CCN)c1 (mixture of isomers) [MB-008, 3-((3-(3-Amino-1-hydroxypropyl)phenoxy)methyl)hexan-1-ol]		recovered visual chromophore to a level comparable to vehicle-treated mice			suppression of visual chromophore regeneration ([1]; 100 μg dose, light exposure 4 h after administration): ~80%; suppression in visual cycle function ([1]; ten-fold higher dose than 10 μg, oral gavage 24 h before light exposure, 6 h dark): 30%; protection against light-induced retinal degeneration (Abca4−/−Rdh8−/− mice; doses as high as 0.25 mg, administered 24 h prior to the light challenge): poorly protective; effect of shortening the duration between administration and light challenge on protection (Abca4−/−Rdh8−/− mice; from 24 to 6 h): substantially improved the protective effects; protection against light-induced retinal degeneration (Abca4−/−Rdh8−/− mice; shorter time period (6 h), dose ten-times higher than that used for MB-004): full protection
		minimal or no inhibition	CC(C)c1cc(OCC2CCCCC2)cc(C(O)CCN)c1 (stereo not drawn) [MB-006, 3-Amino-1-(3-(cyclohexylmethoxy)-5-isopropylphenyl)propan-1-ol]	less incomplete recovery		strongly suppressed visual cycle function	protective	visual chromophore production, % of the vehicle control ([1]; 500 μg oral gavage 24 h before light exposure): ~30%; visual chromophore production, % of the vehicle control ([1]; 1000 μg oral gavage 24 h before light exposure): ~20%; retinal Schiff base adducts in eye extracts [2]: contained compounds matching the expected molecular weight of the respective Schiff base adducts; protection against light-induced retinal degeneration (Abca4−/−Rdh8−/− mice; 0.5 mg per mouse oral gavage 24 h before light): not
		minimal or no inhibition	CC1=C(COc2cc(C(C)C)cc(C(O)CCN)c2)C(C)(C)CCC1 (stereo not drawn) [MB-007, 3-Amino-1-(3-isopropyl-5-((2,6,6-trimethylcyclohex-1-en-1-yl)methoxy)phenyl)propan-1-ol]			minimal effects	no more protective than vehicle control	inhibition of 11-cis-retinal recovery (suppression of visual chromophore regeneration) ([1]; two-fold higher dose than 500 μg (1 mg per mouse), oral gavage 24 h before light exposure): ~50%
